Drawing on PubChem BioAssay AID1259408 (Genetic Toxicology Data Bank (GENE-TOX), 2018), this text covers mutagenic call and call for 25 compounds.

Structures are written as SMILES. Active and inactive are the calls of the source. No rule for the calls is given here.

The data set deals with GENE-TOX genotoxicity assays, various organisms and cells. The experiment in a line: GENE-TOX mutagenicity studies. To be noted: for call: Assay Type: In vivo carcinogenicity studies. The source says: GENE-TOX provides genetic toxicology (mutagenicity) test data from expert peer review of open scientific literature for more than 3,000 chemicals from the United States Environmental Protection Agency (EPA). GENE-TOX was established to select assay systems for evaluation, review data in the scientific literature, and recommend proper testing protocols and evaluation procedures for these systems.
GENE-TOX covers the years 1991 - 1998. It is no longer updated.
This is an archive assay for GENE-TOX mutagenicity studies.

The mark [1] stands for this setting: Species/Cell Type: Nonhuman, Assay Code: CCGT, Evaluation Type: Evaluation A (Pre-1980).
The mark [2] stands for this setting: Species/Cell Type: Salmonella typhimurium (one or more of the five standard strains: TA98, TA100, TA1535, TA1537, and TA1538), Assay Type: Histidine reverse gene mutation, Ames assay, Assay Code: SALT, Evaluation Type: Evaluation A (Pre-1980).
The mark [3] stands for this setting: Species/Cell Type: Salmonella typhimurium (one or more of the five standard strains: TA98, TA100, TA1535, TA1537, and TA1538), Assay Type: Histidine reverse gene mutation, Ames assay, Assay Code: SAL+*, Activation: With metabolic activation, Evaluation Type: Evaluation A (Pre-1980).
Setting [4] is: Species/Cell Type: Salmonella typhimurium (one or more of the five standard strains: TA98, TA100, TA1535, TA1537, and TA1538), Assay Type: Histidine reverse gene mutation, Ames assay, Assay Code: SAL+, Evaluation Type: Evaluation A (Pre-1980).
Where [5] appears, read: Species/Cell Type: Bacillus subtilis (H17 vs M45T), Assay Type: Rec-assay, spot test, DNA effects (bacterial DNA repair), Assay Code: REXT, Evaluation Type: Evaluation A (Pre-1980).
Setting [6] is: Species/Cell Type: Nonhuman, Assay Type: Sister-chromatid exchange (SCE) in vitro, Assay Code: SC2+, Evaluation Type: Evaluation B (Post-1980).
Where [7] appears, read: Species/Cell Type: Drosophila melanogaster, Assay Type: Sex-linked recessive lethal gene mutation, Assay Code: SRLT, Evaluation Type: Evaluation A (Pre-1980).
[8] abbreviates: Species/Cell Type: Nonhuman, Assay Code: CCG+, Evaluation Type: Evaluation A (Pre-1980).
Where [9] appears, read: Species/Cell Type: Mammalian polychromatic erythrocytes, Assay Type: Micronucleus test, chromosome aberrations, Assay Code: MNTT, Evaluation Type: Evaluation B (Post-1980).
[10] abbreviates: Species/Cell Type: Rodents, Sex: Male, Assay Type: Dominant lethal test, Assay Code: DLT+, Evaluation Type: Evaluation A (Pre-1980).
Setting [11] is: Species/Cell Type: Saccharomyces cerevisiae, Assay Type: Mitotic recombination or gene conversion, Assay Code: YEH-, Evaluation Type: Evaluation A (Pre-1980).

For `Cc1c2c(cc3ccccc13)-c1ccccc1C(O)C2O` (centres undefined), the mutagenic call by setting is: (Species/Cell Type: Chinese hamster lung (V79) cells, Assay Type: Forward gene mutation at the HPRT or ouabain locus, Assay Code: V79-*, Activation: With metabolic activation, Evaluation Type: Evaluation A (Pre-1980)) “inactive; negative”; (Species/Cell Type: Nonhuman, Assay Type: Sister-chromatid exchange (SCE) in vitro, Assay Code: SC2T, Evaluation Type: Evaluation A (Pre-1980)) “no conclusion”; under setting [2], “no conclusion”. Further, under setting [1], the call is listed as “no conclusion”.

Consider `CC1CCN(N=O)CC1`, for which the mutagenic call reads like this: (Species/Cell Type: Drosophila melanogaster, Assay Type: Aneuploidy, partial sex chromosome loss, chromosome aberrations, Assay Code: DAPT, Evaluation Type: Evaluation A (Pre-1980)) “no conclusion”; (Species/Cell Type: Drosophila melanogaster, Assay Type: Aneuploidy, whole sex chromosome loss, chromosome aberrations, Assay Code: DACT, Evaluation Type: Evaluation A (Pre-1980)) “no conclusion”; (Species/Cell Type: Drosophila melanogaster, Assay Type: Sex-linked recessive lethal gene mutation, Assay Code: SRL+, Evaluation Type: Evaluation A (Pre-1980)) “active; positive”; (Species/Cell Type: Saccharomyces cerevisiae, Assay Type: Forward gene mutation, Assay Code: YEF+*, Activation: With metabolic activation, Evaluation Type: Evaluation A (Pre-1980)) “active; positive”; under setting [3], “active; positive”.

For `CS/C(C)=N/OC(=O)N(C)N=O`, the mutagenic call under setting [4] is “active; positive”.

With `N#Cc1cccc2c([N+](=O)[O-])cccc12`, the mutagenic call runs as follows: under setting [5], “no conclusion”; (Species/Cell Type: Escherichia coli WP2, Assay Type: Tryptophan reverse gene mutation, Assay Code: WP2-, Evaluation Type: Evaluation A (Pre-1980)) “inactive; negative”; (Species/Cell Type: Escherichia coli WP2 UVRA, Assay Type: Tryptophan reverse gene mutation, Assay Code: WPU+, Evaluation Type: Evaluation A (Pre-1980)) “active; positive”; under setting [6], “active; positive”; under setting [4], “active; positive”.

On to `NN`, for which the mutagenic call under setting [7] is on record as “no conclusion”; the mutagenic call (Species/Cell Type: Nonhuman, Assay Type: Sister-chromatid exchange (SCE) in vitro, Assay Code: SC2+D, Dose Response: With dose response, Evaluation Type: Evaluation B (Post-1980)) is “active; positive”; the mutagenic call (Species/Cell Type: Saccharomyces cerevisiae, Assay Type: Forward gene mutation, Assay Code: YEF+, Evaluation Type: Evaluation A (Pre-1980)) was “active; positive”; the mutagenic call (Species/Cell Type: Vicia faba, Assay Type: Chromosome aberrations, Assay Code: VIC+, Evaluation Type: Evaluation A (Pre-1980)) was “active; positive”. In addition, under setting [8], the call is “active; positive”.

Turning to `COc1c(OC)c(O)c2c(=O)c(OC)c(-c3ccc(O)c(O)c3)oc2c1OC`, the mutagenic call (Species/Cell Type: Mammalian polychromatic erythrocytes, Assay Type: Micronucleus test, chromosome aberrations, Assay Code: MNT+, Evaluation Type: Evaluation B (Post-1980)) is “active; positive”.

As to `CC1(C)CN1`, the mutagenic call (Species/Cell Type: Schizosaccharomyces pombe, Assay Type: Reverse gene mutation, Assay Code: YEZ+, Evaluation Type: Evaluation A (Pre-1980)) was “active; positive”.

As to `Cc1cc(/C=C/c2ccc3cc(N(C)C)ccc3[n+]2C)c(C)n1-c1ccccc1`, the mutagenic call was “active; positive” under setting [6] and “active; positive” under setting [3].

Turning to `CC(=O)ON(C)c1ccc(N=Nc2ccccc2)cc1`, under setting [4], the mutagenic call was “active; positive”.

Regarding `CCCC=O`, the mutagenic call runs as follows: (Species/Cell Type: Human lymphocytes, Assay Type: Sister-chromatid exchange (SCE) in vitro, Assay Code: SCL+, Evaluation Type: Evaluation B (Post-1980)) “active; positive”; (Species/Cell Type: Human, Assay Type: Sister-chromatid exchange (SCE) in vitro, Assay Code: SC1+, Evaluation Type: Evaluation B (Post-1980)) “active; positive”.

Turning to `Oc1ccc2c(cc3ccc4cccc5ccc2c3c45)c1O`, the mutagenic call was “active; positive” (Species/Cell Type: Mouse prostate cells, Assay Type: Cell transformation, Assay Code: CTM+D, Dose Response: With dose response, Evaluation Type: Evaluation A (Pre-1980)) and “active; positive” (Species/Cell Type: Syrian hamster embryo (SHE) cells, Assay Type: Cell transformation, clonal assay, Assay Code: CTC+, Evaluation Type: Evaluation A (Pre-1980)).

`Oc1c(Cl)cc(Cl)c(Cl)c1Cc1c(O)c(Cl)cc(Cl)c1Cl`: the mutagenic call under setting [9] is listed as “no conclusion”.

Consider `O=[N+]([O-])c1ccc2c3c(cccc13)CC2`, for which the call under setting [8] is “active; positive”. In addition, under setting [4], the mutagenic call is “active; positive”.

As for `Nc1ccc2nc3ccc(N)cc3[n+](-c3ccccc3)c2c1`, the mutagenic call under setting [7] was “no conclusion”.

Regarding `COc1ccc(/C=N/NC(=O)COc2ccc(Br)cc2CN(C)C)cc1`, for the setting “Species/Cell Type: Saccharomyces cerevisiae, Assay Type: Reverse gene mutation, Assay Code: YERT, Evaluation Type: Evaluation A (Pre-1980)”, the mutagenic call is recorded as “no conclusion”.

Take `CC(=O)[O-].CC(=O)[O-].[Co+2]`: the mutagenic call (Species/Cell Type: Syrian hamster embryo (SA7/SHE) cells, Assay Type: Cell transformation, viral enhanced, Assay Code: CT7+, Evaluation Type: Evaluation A (Pre-1980)) is “active; positive”.

For `CC(=O)[O-].CC(=O)[O-].[OH-].[OH-].[OH-].[OH-].[Pb+2].[Pb+2].[Pb+2]`, the call under setting [8] is “active; positive”. Also, the mutagenic call (Species/Cell Type: Rodents, Sex: Male, Assay Type: Dominant lethal test, Assay Code: DLTT, Evaluation Type: Evaluation A (Pre-1980)) is on record as “no conclusion”.

On to `c1ccc2c(c1)Cc1ccccc1-2`, for which the mutagenic call runs as follows: (Species/Cell Type: Nonhuman, Assay Type: Sister-chromatid exchange (SCE) in vivo, Assay Code: SC3T, Evaluation Type: Evaluation B (Post-1980)) “no conclusion”; (Species/Cell Type: Salmonella typhimurium (one or more of the five standard strains: TA98, TA100, TA1535, TA1537, and TA1538), Assay Type: Histidine reverse gene mutation, Ames assay, Assay Code: SAL-, Evaluation Type: Evaluation A (Pre-1980)) “inactive; negative”.

In the case of `Cc1cc2nc3ccc(N(C)C)cc3nc2cc1NC(=O)CN(C)N=O`, the mutagenic call under setting [2] is “no conclusion”.

With `CN(C)C(=O)Nc1cccc(C(F)(F)F)c1`, the mutagenic call (Species/Cell Type: Saccharomyces cerevisiae, Assay Type: Mitotic recombination or gene conversion, Assay Code: YEC-, Evaluation Type: Evaluation A (Pre-1980)) is “inactive; negative”.

For `S=c1nc[nH]c2nc[nH]c12`, the mutagenic call is “active; positive” (Species/Cell Type: Escherichia coli polA (W3119 vs P3478), Assay Type: Rec-assay, DNA effects (bacterial DNA repair), Assay Code: RE1+, Evaluation Type: Evaluation A (Pre-1980)); “active; positive” (Species/Cell Type: Mammalian germ cells, Sex: Male, Assay Type: Chromosome aberrations in vivo, Assay Code: CY9+, Evaluation Type: Evaluation A (Pre-1980)); “active; positive” (Species/Cell Type: Mammalian polychromatic erythrocytes, Assay Type: Micronucleus test, chromosome aberrations, Assay Code: MNT+, Evaluation Type: Evaluation A (Pre-1980)); “inactive; negative” (Species/Cell Type: Mouse (C3H/10T1/2) cells, Assay Type: Cell transformation, Assay Code: CTH-, Evaluation Type: Evaluation A (Pre-1980)); “inactive; negative” (Species/Cell Type: Mouse, Sex: Male, Assay Type: Heritable translocation test, chromosome aberrations, Assay Code: HTT-, Evaluation Type: Evaluation A (Pre-1980)); “active; positive” (Species/Cell Type: Nonhuman bone marrow, Assay Type: Chromosome aberrations, in vivo, Assay Code: CY#+D, Dose Response: With dose response, Evaluation Type: Evaluation A (Pre-1980)). In addition, the mutagenic call is “no conclusion” (Species/Cell Type: Nonhuman, Assay Type: Sister-chromatid exchange (SCE) in vitro, Assay Code: SC2T, Evaluation Type: Evaluation B (Post-1980)) and “active; positive” under setting [10]. In addition, the call under setting [1] is “no conclusion”.

With `CCCCCC[C@@H](O)[C@@H]1C2=C(C[C@H]([C@H](O)[C@@H]3CC=CC(=O)O3)CC3=C(C(=O)OC3=O)[C@@H]1O)C(=O)OC2=O`, the mutagenic call is, setting by setting: (Species/Cell Type: Bacillus subtilis (H17 vs M45), Assay Type: Rec-assay, spot test, DNA effects (bacterial DNA repair), Assay Code: REW-, Evaluation Type: Evaluation A (Pre-1980)) “inactive; negative”; under setting [10], “active; positive”; under setting [11], “inactive; negative”; under setting [2], “no conclusion”.

As for `O=NN1CCNCC1`, under “Species/Cell Type: Salmonella typhimurium, Assay Type: Forward and reverse gene mutation, host-mediated assay, Assay Code: HMA+, Evaluation Type: Evaluation A (Pre-1980)”, the mutagenic call was “active; positive”.

With `CC1=C(/C=C/C(C)=C/C=C/C(C)=C/C=C/C=C(C)/C=C/C=C(C)/C=C/C2=C(C)CCCC2(C)C)C(C)(C)CCC1`, the mutagenic call runs as follows: under setting [5], “no conclusion”; under setting [9], “no conclusion”.

`CC(=O)OC[C@]12CCC(C)=C[C@H]1O[C@@H]1[C@H](O)[C@@H](OC(C)=O)[C@@]2(C)[C@]12CO2`: the mutagenic call is “inactive; negative” under setting [11] and “no conclusion” under setting [2].
